The results in this text go back to US10322998B2, “Heterogeneous foldamers containing α, β, and/or γ-amino acids” (WISCONSIN ALUMNI RESEARCH FOUNDATION, priority 2002, dated 2019).

The series in a line: Solubility, qualitative observations during synthesis and characterisation.

With `CC(C)[C@@H](NC(=O)OC(C)(C)C)C(=O)N[C@@H]1CCCC[C@H]1C(=O)N[C@@H](C(=O)N[C@@H]1CCCC[C@H]1C(=O)OCc1ccccc1)C(C)C` [2-28, Boc-D-Val-ACHC-D-Val-ACHC-Olin], the “solubility in organic solvents” value (organic solvents, crude product) is recorded as “poor solubility”.

Regarding `COC(=O)[C@H]1CC[C@H](NC(=O)[C@H]2CC[C@H](NC(=O)[C@H]3CC[C@H](NC(=O)[C@H]4CC[C@H](NC(=O)OC(C)(C)C)C4)C3)C2)C1` [Compound 7], under “solvents other than 1:1 CDCl3:CD3OD”, the “solubility in other solvents” value is reported as “poor solubility”.

Consider `CC(=O)NC1CCCC1C(=O)N[C@@H](Cc1ccccc1)C(=O)NC1CCCC1C(=O)N[C@@H](Cc1ccccc1)C(=O)NC1CCCC1C(=O)N[C@@H](Cc1ccccc1)C(N)=O` (stereo partly shown) [Peptide 42], for which, where the note is “crude compound, water, methanol, acetonitrile, acetone, ethyl acetate, methylene chloride, DMSO”, the “solubility in common solvents” value is “insoluble”.

Consider `CC(C)(CNC(=O)[C@H]1CC[C@H](NC(=O)[C@H]2CC[C@H](NC(=O)Cc3ccccc3)C2)C1)NC(=O)[C@H]1CCCN1C(=O)[C@H]1CC[C@H](NC(=O)[C@H]2CC[C@H](NC(=O)C(C)(C)C)C2)C1` [compound 3], for which the “solubility in CD2Cl2” value (CD2Cl2) was “nearly insoluble”.
